The values that follow come from US11345885B2, “Agent for inducing callus and method for inducing callus” (RIKEN, priority 2014, dated 2022).

Experiment [1] deals with hypocotyl of Arabidopsis (Columbia). The experiment can be described thus: Functional analysis of putative fipexide metabolites, morphological observation of cut hypocotyl on 1/2 MS medium. The settings on record: for callus induction activity: 0, 5, 15, 30, 45 or 60 μM in 1/2 MS medium, hypocotyl. Type of experiment: cell-based. An excerpt:
Fipexide is a compound formed by an amide bond between 4-chlorophenoxyacetic acid and 1-piperonylpiperazine, and fipexide is deduced to be non-enzymatically hydrolyzed in a plant. Thus, treatment with 4-chlorophenoxyacetic acid or 1-piperonylpiperazine alone or treatment with both thereof was attempted.
Arabidopsis (Columbia) was allowed to germinate under weak lighting conditions for 7 days, the hypocotyl cut therefrom was placed on a ½ MS medium supplemented with 4-chlorophenoxyacetic acid and/or 1-piperonylpiperazine at 0, 5, 15, 30, 45, or 60 μM, and morphological observation thereof was conducted.

The test system of experiment [2] is African violet leaf explants. The settings on record: cited from earlier work.
Experiment [3] has as its system stalks and roots of wild-type Populus. The experiment can be described thus: Fipexide callus induction and redifferentiation in stalks and roots of Populus. The format is cell-based. As to the method: The induced callus was cultured in a redifferentiation medium (i.e., a MS medium (0.9% agarose and 1.5% sucrose) containing auxin (indoleacetic acid) at 0.15 mg/1 and cytokinine (N^6-2-isopentenyladenine) at 0.5 mg/l or a ½ MS medium (0.9% Phytoagar (agarose for plants) and 0.2% sucrose) containing 3-indolebutyric acid (IBA) at 0.1 mg/l and 6-benzylaminopurine (BAP) at 0.2 mg/l).
The conditions of the aseptic stalk (which is not the hypocotyl) and the root organ sections of wild-type Populus 30 days after cutting in the presence of fipexide are shown at the center of FIG. 7, and the conditions thereof 30 days after the medium was exchanged with a fresh redifferentiation medium are shown on the right of FIG. 7.

In experiment [4] the test system is root organ of Arabidopsis (Columbia). The experiment can be described thus: Callus induction and redifferentiation by treatment with fipexide (cut root organ). The settings on record: fipexide 45 μM for 2 weeks. The format is cell-based. Here is the method: The root organ of Arabidopsis (Columbia) was cut, treated in a ½ MS medium supplemented with fipexide at 45 μM for 2 weeks to induce a callus, and then cultured in a redifferentiation medium (auxin/cytokinine). […] In contrast, the root organ of Arabidopsis (Columbia) was cut and then cultured in the redifferentiation medium without callus induction. As a result, redifferentiation was not observed (FIG. 2B).

Experiment [5] has as its system Populus stalk samples (Populus tremula x tremuloides T89). The experiment can be described thus: Transformation by the Agrobacterium method utilizing callus induction caused by fipexide. The format is cell-based. As to the method:
Under general callus induction conditions for Populus, callus induction was conducted with the use of fipexide instead of auxin/cytokinine, and whether or not Agrobacterium-infected callus was transformed was examined. The GUS gene was introduced into a pH35GS binary vector comprising a Gateway cassette (Kubo M. et al., Genes & Dev., 19, 1855-1860, 2005) (manufactured by […] Innovations Inc.; Production code: IN3-VEC17) using the Gateway system, and the resulting binary vector was used for the Agrobacterium method, so as to confirm infection. 1. From young plants of aseptically cultured Populus (Populus tremula x tremuloides […]) that had been grown in pots, stalk samples (length: 5 mm) were cut. 2. The stalk samples were cultured in the presence of Agrobacterium (for 3 days, in the dark, at 22° C.). 3. After Agrobacterium was washed away, the stalk samples were placed on MS1 medium or modified MS1 medium (containing 30 μM fipexide instead of 3-indolebutyric acid (IBA) and 6-benzylaminopurine (BAP)) and cultured at 25° C. 4. […] Two months after the initiation of callus induction culture, 23 calluses were fixed in 90% (w/w) acetone at -30° C. overnight, the samples were washed twice with 50 mM PBS buffer (pH 7.0), and the samples were subjected to incubation in GUS substrate solution at 37° C. for 15 minutes for staining.

The test system of the next experiment is Arabidopsis hypocotyl. Nature of the experiment: Comparison of fipexide with conventional technique (2,4-D/kinetin) for callus induction. Type of experiment: cell-based. The settings on record: fipexide 45 μM vs 2,4-dichlorophenoxyacetic acid 2.26 μM and kinetin 0.465 μM, constant lighting, 87 days. As to the method:
Callus induction in Arabidopsis that was carried out at the optimized auxin/cytokinine concentration (i.e., 2,4-dichlorophenoxyacetic acid at 2.26 μM and kinetin at 0.465 μM) was compared with callus induction that was carried out at the fipexide concentration of 45 μM.

A further experiment deals with tomato seed (Micro-Tom). Nature of the experiment: Fipexide activity test using other plants: tomato seed in fipexide medium. Type of experiment: in vivo. Here is the method: (§1) As with the case of Arabidopsis germination conditions, plants were cultured in a fipexide medium with the use of sterilized seeds.
In experiment [6] the test system is germinated Eucalyptus seeds. The experiment can be described thus: Fipexide activity test using other plants: Eucalyptus seeds in fipexide medium. Type of experiment: in vivo. Here is the method:
as §1

Experiment [7] deals with wild-type rice (Nipponbare). Nature of the experiment: Fipexide activity test using other plants: rice seeds in fipexide medium. Type of experiment: in vivo. Here is the method: as §1
For experiment [8], the system named is Arabidopsis (Columbia) wild-type seeds. Nature of the experiment: Morphological observation of Arabidopsis (Columbia) by treatment with fipexide (seeds sowed in 1/2 MS medium). The format is in vivo. As to conditions: for callus formation (site): 1/2 MS medium, seeds. Here is the method: Wild-type seeds of Arabidopsis (Columbia) were sowed in a ½ MS medium supplemented with fipexide at 0, 15, 30, or 45 μM, and morphological observation was conducted.

In experiment [9] the test system is cucumber seed (Natsu Suzumi). The experiment can be described thus: Fipexide activity test using other plants: cucumber seed in fipexide medium. Type of experiment: in vivo. Here is the method:
as §1

In another experiment the test system is soybean seed (Tsurunoko). The experiment can be described thus: Fipexide activity test using other plants: soybean seed in fipexide medium. The format is in vivo. Here is the method:
as §1

`c1cc2c(cc1CN1CCNCC1)OCO2` [1-piperonylpiperazine, 1-(3,4-methylenedioxybenzyl)piperazine]: the callus induction activity in experiment [1] is listed as “callus induction activity was not observed”. Further, in [1] (treatment alone), the leaf area result was “enlarged”; the “number and length of lateral roots” value is on record as “increased”.

With `O=C(O)COc1ccc(Cl)cc1` [4-chlorophenoxyacetic acid], in experiment [1], the callus induction activity is on record as “callus induction activity was observed”. Besides, the callus formation efficiency in experiment [2] is “not high”. Also, in [2] (treatment at a particular concentration), the “number of days required from implanting of explants to callus formation, and formation of adventitious shoots and adventitious roots” value is “reduced”.

`O=C(COc1ccc(Cl)cc1)N1CCN(Cc2ccc3c(c2)OCO3)CC1` [fipexide, 1-[(p-chlorophenoxy)acetyl]-4-piperonylpiperazine]: the callus induction activity in experiment [1] is “callus induction activity was observed”. In addition, the “redifferentiation of the induced callus in redifferentiation medium” value in experiment [3] (MS medium with indoleacetic acid 0.15 mg/l and N6-2-isopentenyladenine 0.5 mg/l, or 1/2 MS medium with IBA 0.1 mg/l and BAP 0.2 mg/l) is on record as “redifferentiation was observed”. For the same compound, the callus induction in experiment [3] (stalks and roots of Populus in fipexide medium) is “callus induction was observed in the stalks and the roots”; with tomato seed (Micro-Tom) it was “callus induction was observed”; in [6], “callus induction was observed”; in experiment [7] (germinated rice seeds, fipexide medium), “callus induction was observed”; in experiment [9], “callus induction was observed”; with soybean seed (Tsurunoko), “callus induction was observed”. In addition, the “redifferentiation in redifferentiation medium (auxin/cytokinine) after callus induction” value in experiment [4] is “redifferentiation was observed”. Also, the “GUS activity in calluses (transformation)” value in experiment [5] (23 calluses, two months after initiation of callus induction culture, 30 μM fipexide) is “GUS activity was observed in all samples”. The “callus formation on the fourth week” value in experiment [5] (Agrobacterium-treated stalk samples, 25° C., modified MS1 medium with 30 μM fipexide vs conventional MS1 medium) is reported as “many calluses were formed”. Moreover, the “callus induction efficiency compared with optimized auxin/cytokinine” value in the experiment on Arabidopsis hypocotyl is listed as “higher than that attained at the optimized auxin/cytokinine concentration”. For the same compound, the callus formation in experiment [7] (fipexide 45 μM, 30 days after seed germination) is “Callus formation was observed”. Besides, the “callus formation (site)” value in [8] (fipexide 15 μM (low concentration)) is listed as “callus formation was mainly observed in the root”; in experiment [8] (fipexide 45 μM (high concentration)), “in the shoot apex”. Further, in [8] (fipexide at high concentration), the “callus formation in the root” value is given as “suppressed”.
